In patent US11608323B2 (SYNGENTA LIMITED, priority 2013, dated 2023):

What was measured:
Format in all cases: in vivo
ABUTH [1] = assay: Pre-emergence herbicidal activity, glasshouse pot test; settings: rate 1000 g/Ha, evaluated after 13 days, scale 0-5
Outline: (§1)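 Seeds sown in standard soil in pots, held one day in glasshouse (24/16 °C day/night, 14 h light, 65% humidity), then sprayed with aqueous solution of compound formulated in acetone/water 50:50 with 0.5% Tween 20. Grown on under same conditions, watered twice daily; damage scored after 13 days (0 = none, 5 = total).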

SETFA [2] = assay: as above; settings: rate 1000 g/Ha, evaluated after 13 days, scale 0-5
Outline: as §1

ALOMY [3] = assay: as above; settings: rate 1000 g/Ha, evaluated after 13 days, scale 0-5
Outline: as §1

AMARE [4] = assay: as above; settings: rate 1000 g/Ha, evaluated after 13 days, scale 0-5
Outline: as §1

ECHCG [5] = assay: as above; settings: rate 1000 g/Ha, evaluated after 13 days, scale 0-5
Outline: as §1

ZEAMX [6] = assay: as above; settings: rate 1000 g/Ha, evaluated after 13 days, scale 0-5
Outline: as §1

ABUTH [7] = assay: Post-emergence herbicidal activity, glasshouse pot test; settings: Abutilon theophrasti; application post-emergence; rate 1000 g/Ha; evaluated after 13 days
Outline: (§2)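 Pot-grown plants, 8 days after sowing, were sprayed with compound formulated in acetone/water (50:50) with 0.5% Tween 20. Glasshouse conditions 24/16° C day/night, 14 h light, 65% humidity; damage scored after 13 days on a 0 (none) to 5 (total) scale.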

SETFA [8] = assay: as above; settings: Setaria faberi; application post-emergence; rate 1000 g/Ha; evaluated after 13 days
Outline: as §2

ALOMY [9] = assay: as above; settings: Alopecurus myosuroides; application post-emergence; rate 1000 g/Ha; evaluated after 13 days
Outline: as §2

AMARE [10] = assay: as above; settings: Amaranthus retroflexus; application post-emergence; rate 1000 g/Ha; evaluated after 13 days
Outline: as §2

ECHCG [11] = assay: as above; settings: Echinochloa crus-galli; application post-emergence; rate 1000 g/Ha; evaluated after 13 days
Outline: as §2

ZEAMX [12] = assay: as above; settings: Zea mays; application post-emergence; rate 1000 g/Ha; evaluated after 13 days
Outline: as §2

Compound | ABUTH damage score, application pre-emergence (ABUTH [1]) | SETFA damage score, application pre-emergence (SETFA [2]) | ALOMY damage score, application pre-emergence (ALOMY [3]) | AMARE damage score, application pre-emergence (AMARE [4]) | ECHCG damage score, application pre-emergence (ECHCG [5]) | ZEAMX damage score, application pre-emergence (ZEAMX [6]) | Post-emergence herbicidal activity ABUTH (damage score 0-5) (ABUTH [7]) | Post-emergence herbicidal activity SETFA (damage score 0-5) (SETFA [8]) | Post-emergence herbicidal activity ALOMY (damage score 0-5) (ALOMY [9]) | Post-emergence herbicidal activity AMARE (damage score 0-5) (AMARE [10]) | Post-emergence herbicidal activity ECHCG (damage score 0-5) (ECHCG [11]) | Post-emergence herbicidal activity ZEAMX (damage score 0-5) (ZEAMX [12])
CN1C(=O)N(c2cc(C(F)(F)F)ccn2)C(O)C1C(F)(F)F (stereo not drawn) [Compound A33, 4-hydroxy-1-methyl-5-(trifluoromethyl)-3-[4-(trifluoromethyl)-2-pyridyl]imidazolidin-2-one] | 4 | 3 | 3 | 5 | 2 | 0 | 5 | 2 | 4 | 3 | 1 | 1
CON1CC(O)N(c2cc(C(F)(F)F)ccn2)C1=O (stereo not drawn) [Compound A36] | 1 | 2 | 2 | 5 | 4 | 0 | 1 | 3 | 4 | 5 | 5 | 2
CN1C(=O)N(c2cc(C(F)(F)F)ccn2)C(O)C1OCC(F)(F)F (stereo not drawn) [Compound A39] | 5 | 2 | 4 | 5 | 3 | 1 | 5 | 5 | 5 | 5 | 5 | 1
CC1NC(=O)N(c2cc(C(F)(F)F)ccn2)C1O (stereo not drawn) [Compound A40] | 4 | 2 | 2 | 5 | 3 | 2 | 5 | 3 | 4 | 5 | 4 | 1
C=CCOC1C(O)N(c2cc(C(F)(F)F)ccn2)C(=O)N1C (stereo not drawn) [Compound A41] | 5 | 2 | 1 | 5 | 2 | 1 | 5 | 4 | 4 | 5 | 2 | 2
COC(OC)C1C(O)N(c2cc(C(F)(F)F)ccn2)C(=O)N1C (stereo not drawn) [Compound A42] | 1 | 3 | 0 | 4 | 0 | 0 | 4 | 2 | 2 | 4 | 0 | 1
CN1C(=O)N(c2cc(C(F)(F)F)ccn2)C(O)C1CO (stereo not drawn) [Compound A43] | 5 | 2 | 1 | 2 | 1 | 0 | 5 | 0 | 1 | 1 | 5 | 2
C#CCOC1C(O)N(c2cc(C(F)(F)F)ccn2)C(=O)N1C (stereo not drawn) [Compound A44] | 5 | 4 | 4 | 5 | 5 | 2 | 5 | 5 | 4 | 5 | 5 | 4
COCCOC1C(O)N(c2cc(C(F)(F)F)ccn2)C(=O)N1C (stereo not drawn) [Compound A45] | 5 | 3 | 2 | 5 | 3 | 1 | 5 | 3 | 2 | 5 | 3 | 1
O=C1N(c2cc(C(F)(F)F)ccn2)C(O)[C@@H]2CCCN12 (stereo partly drawn) [Compound A46] | 5 | 2 | 4 | 5 | 4 | 3 | 5 | 5 | 5 | 5 | 5 | 3
O=C1N(c2cc(C(F)(F)F)ccn2)C(O)[C@H]2CCCN12 (stereo partly drawn) [Compound A47] | 5 | 4 | 4 | 5 | 5 | 2 | 5 | 5 | 5 | 5 | 5 | 4
CC(C)OC1C(O)N(c2cc(C(F)(F)F)ccn2)C(=O)N1C (stereo not drawn) [Compound A48] | 5 | 3 | 4 | 5 | 1 | 1 | 5 | 4 | 4 | 5 | 4 | 1
CC1C(O)N(c2cc(C(F)(F)F)c(Cl)cn2)C(=O)N1C (stereo not drawn) [Compound A49] | 5 | 4 | 4 | 5 | 4 | 3 | 5 | 5 | 5 | 5 | 5 | 4
